Data: US8952024B2, “Herbicidal pyrimidone derivatives” (E I du Pont de Nemours and Company, priority 2009, dated 2015)

How the values were obtained:
Assay in all cases: Test B pre-/postemergence plant response
Format in all cases: in vivo
[1] = tested on: goosegrass (Eleusine indica); settings: Preemergence, 62 g ai/ha; scale 0 to 100, 0 no effect, 100 complete control
[2] = tested on: sunflower (common oilseed sunflower, Helianthus annuus); settings: Preemergence; for Sunflower plant response rating: 125 g ai/ha
In short: (§1)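 Plants treated either at seeding (loam/sand soil) or postemergence at 2 to 18 cm height, using a surfactant-containing non-phytotoxic solvent formulation. Evaluation was visual after 13 to 15 days, 0 to 100 scale relative to controls.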

corn (Zea mays) = tested on: corn (Zea mays)
In short: as §1

[3] = tested on: woolly cupgrass (Eriochloa villosa)
In short: as §1

[4] = tested on: large crabgrass (Digitaria sanguinalis)
In short: as §1

[5] = tested on: nightshade (eastern black nightshade, Solanum ptycanthum); settings: Preemergence; for Nightshade plant response rating: 125 g ai/ha
In short: as §1

[6] = tested on: goosegrass (Eleusine indica)
In short: as §1

[7] = tested on: pigweed (Amaranthus retroflexus)
In short: as §1

[8] = tested on: Surinam grass (Brachiaria decumbens)
In short: as §1

[9] = tested on: lambsquarters (Chenopodium album)
In short: as §1

[10] = tested on: galium (catchweed bedstraw, Galium aparine); settings: Preemergence; for Galium plant response rating: 125 g ai/ha
In short: as §1

[11] = tested on: Italian ryegrass (Lolium multiflorum)
In short: as §1

[12] = 31 g ai/ha, scale 0 to 100 (0 no effect, 100 complete control)
[13] = 250 g ai/ha, Preemergence, 0 to 100 scale
[14] = Postemergence, 31 g ai/ha, scale 0 to 100 (0 no effect, 100 complete control)
[15] = Postemergence, 62 g ai/ha, scale 0 (no effect) to 100 (complete control), 13 to 15 days
[16] = Postemergence, 125 g ai/ha, visual rating after 13 to 15 days, scale 0 (no effect) to 100 (complete control)
[17] = Postemergence, 250 g ai/ha, scale 0 to 100
[18] = Preemergence, 31 g ai/ha, scale 0 to 100 (0 no effect, 100 complete control)
[19] = Preemergence, 62 g ai/ha, scale 0 to 100, 0 no effect, 100 complete control
[20] = Preemergence, 125 g ai/ha, 0 to 100 scale
[21] = 62 g ai/ha, scale 0 to 100, 0 no effect, 100 complete control
[22] = 31 g ai/ha, postemergence, scale 0 to 100, 0 is no effect, 100 is complete control
[23] = Postemergence, 250 g ai/ha, scale 0 to 100 (0 no effect, 100 complete control)

Cc1ccc(-n2c(-c3cccc(Cl)c3)ncc(C(=O)C3=C(O)CCCC3=O)c2=O)cc1 [Compound 39]
Plant response rating, Goosegrass [1]: 100
Plant response rating, Sunflower ([2]; 250 g ai/ha, 0 to 100 scale): 65
Plant response rating, Sunflower [2, 12]: 0
Sunflower plant response rating ([2]; 0 to 100 scale): 25
Plant response rating, Corn (corn (Zea mays); [13]): 0
Plant response rating, Corn (corn (Zea mays); [14]): 25
Plant response rating, Corn (corn (Zea mays); [15]): 45
Plant response rating, Corn (corn (Zea mays); [16]): 45
Corn plant response rating (corn (Zea mays); [17]): 65
Plant response rating, Corn (corn (Zea mays); [18]): 0
Plant response rating, Corn (corn (Zea mays); [19]): 0
Corn plant response rating (corn (Zea mays); [20]): 0
Plant response rating, Cupgrass, Woolly [3, 13]: 10
Plant response rating, Cupgrass, Woolly [3, 14]: 65
Plant response rating, Cupgrass, Woolly [3, 15]: 85
Plant response rating, Cupgrass, Woolly [3, 16]: 85
Cupgrass, Woolly plant response rating [3, 17]: 90
Plant response rating, Cupgrass, Woolly [3, 18]: 0
Plant response rating, Cupgrass, Woolly [3, 19]: 0
Cupgrass, Woolly plant response rating [3, 20]: 0
Plant response rating, Crabgrass, Large [4, 13]: 100
Plant response rating, Crabgrass, Large [4, 14]: 75
Plant response rating, Crabgrass, Large [4, 15]: 80
Plant response rating, Crabgrass, Large [4, 16]: 85
Crabgrass, Large plant response rating [4, 17]: 90
Plant response rating, Crabgrass, Large [4, 18]: 55
Plant response rating, Crabgrass, Large [4, 19]: 95
Crabgrass, Large plant response rating [4, 20]: 100
Plant response rating, Nightshade ([5]; 250 g ai/ha, 0 to 100 scale): 100
Plant response rating, Nightshade [5, 12]: 50
Plant response rating, Nightshade [5, 21]: 100
Nightshade plant response rating ([5]; 0 to 100 scale): 100
Plant response rating, Goosegrass [6, 13]: 100
Plant response rating, Goosegrass [6, 15]: 55
Plant response rating, Goosegrass [6, 16]: 65
Goosegrass plant response rating [6, 17]: 75
Plant response rating, Goosegrass [6, 18]: 85
Goosegrass plant response rating [6, 20]: 100
Plant response rating, Pigweed [7, 13]: 100
Plant response rating, Pigweed [7, 15]: 100
Plant response rating, Pigweed [7, 16]: 100
Plant response rating, Pigweed [7, 18]: 90
Pigweed plant response rating [7, 20]: 100
Plant response rating, Surinam Grass [8, 13]: 15
Plant response rating, Surinam Grass [8, 15]: 65
Plant response rating, Surinam Grass [8, 16]: 65
Plant response rating, Surinam Grass [8, 18]: 0
Surinam Grass plant response rating [8, 20]: 10
Plant response rating, Lambsquarters [9, 13]: 100
Plant response rating, Lambsquarters [9, 15]: 95
Plant response rating, Lambsquarters [9, 16]: 100
Lambsquarters plant response rating [9, 17]: 100
Plant response rating, Lambsquarters [9, 18]: 100
Plant response rating, Lambsquarters [9, 19]: 100
Lambsquarters plant response rating [9, 20]: 100
Plant response rating, Galium ([10]; 250 g ai/ha, 0 to 100 scale): 85
Plant response rating, Galium [10, 12]: 70
Plant response rating, Galium [10, 21]: 80
Galium plant response rating ([10]; 0 to 100 scale): 85
Plant response rating, Ryegrass, Italian [11, 13]: 0
Plant response rating, Ryegrass, Italian [11, 15]: 5
Plant response rating, Ryegrass, Italian [11, 16]: 5
Plant response rating, Ryegrass, Italian [11, 18]: 0
Ryegrass, Italian plant response rating [11, 20]: 0

Cc1ccc(F)c(-n2c(-c3ccccc3)ncc(C(=O)C3=C(O)CCCC3=O)c2=O)c1 [Compound 51]
Plant response rating, Goosegrass [1]: 100
Plant response rating, Sunflower ([2]; 250 g ai/ha, 0 to 100 scale): 75
Plant response rating, Sunflower [2, 12]: 20
Sunflower plant response rating ([2]; 0 to 100 scale): 75
Plant response rating, Corn (corn (Zea mays); [22]): 75
Plant response rating, Corn (corn (Zea mays); [13]): 0
Plant response rating, Corn (corn (Zea mays); [15]): 80
Plant response rating, Corn (corn (Zea mays); [16]): 80
Plant response rating, Corn (corn (Zea mays); [23]): 85
Plant response rating, Corn (corn (Zea mays); [18]): 0
Plant response rating, Corn (corn (Zea mays); [19]): 0
Corn plant response rating (corn (Zea mays); [20]): 0
Plant response rating, Cupgrass, Woolly [3, 22]: 75
Plant response rating, Cupgrass, Woolly [3, 13]: 85
Plant response rating, Cupgrass, Woolly [3, 15]: 75
Plant response rating, Cupgrass, Woolly [3, 16]: 80
Plant response rating, Cupgrass, Woolly [3, 23]: 90
Plant response rating, Cupgrass, Woolly [3, 18]: 10
Plant response rating, Cupgrass, Woolly [3, 19]: 35
Cupgrass, Woolly plant response rating [3, 20]: 75
Plant response rating, Crabgrass, Large [4, 22]: 80
Plant response rating, Crabgrass, Large [4, 13]: 100
Plant response rating, Crabgrass, Large [4, 15]: 85
Plant response rating, Crabgrass, Large [4, 16]: 85
Plant response rating, Crabgrass, Large [4, 23]: 90
Plant response rating, Crabgrass, Large [4, 18]: 75
Plant response rating, Crabgrass, Large [4, 19]: 98
Crabgrass, Large plant response rating [4, 20]: 100
Plant response rating, Nightshade ([5]; 250 g ai/ha, 0 to 100 scale): 100
Plant response rating, Nightshade [5, 12]: 98
Plant response rating, Nightshade [5, 21]: 98
Nightshade plant response rating ([5]; 0 to 100 scale): 98
Plant response rating, Goosegrass [6, 22]: 75
Plant response rating, Goosegrass [6, 13]: 100
Plant response rating, Goosegrass [6, 15]: 80
Plant response rating, Goosegrass [6, 16]: 85
Plant response rating, Goosegrass [6, 23]: 85
Plant response rating, Goosegrass [6, 18]: 98
Goosegrass plant response rating [6, 20]: 100
Plant response rating, Pigweed [7, 22]: 85
Plant response rating, Pigweed [7, 13]: 100
Plant response rating, Pigweed [7, 15]: 95
Plant response rating, Pigweed [7, 16]: 98
Plant response rating, Pigweed [7, 23]: 100
Plant response rating, Pigweed [7, 18]: 100
Pigweed plant response rating [7, 20]: 100
Plant response rating, Surinam Grass [8, 22]: 80
Plant response rating, Surinam Grass [8, 13]: 100
Plant response rating, Surinam Grass [8, 15]: 85
Plant response rating, Surinam Grass [8, 16]: 90
Plant response rating, Surinam Grass [8, 23]: 90
Plant response rating, Surinam Grass [8, 18]: 95
Surinam Grass plant response rating [8, 20]: 98
Plant response rating, Lambsquarters [9, 22]: 75
Plant response rating, Lambsquarters [9, 13]: 98
Plant response rating, Lambsquarters [9, 15]: 90
Plant response rating, Lambsquarters [9, 16]: 95
Plant response rating, Lambsquarters [9, 23]: 98
Plant response rating, Lambsquarters [9, 18]: 95
Plant response rating, Lambsquarters [9, 19]: 98
Lambsquarters plant response rating [9, 20]: 98
Plant response rating, Galium ([10]; 250 g ai/ha, 0 to 100 scale): 95
Plant response rating, Galium [10, 12]: 0
Plant response rating, Galium [10, 21]: 75
Galium plant response rating ([10]; 0 to 100 scale): 80
Plant response rating, Ryegrass, Italian [11, 22]: 0
Plant response rating, Ryegrass, Italian [11, 13]: 5
Plant response rating, Ryegrass, Italian [11, 15]: 0
Plant response rating, Ryegrass, Italian [11, 16]: 10
Plant response rating, Ryegrass, Italian [11, 23]: 30
Plant response rating, Ryegrass, Italian [11, 18]: 0
Ryegrass, Italian plant response rating [11, 20]: 0
